Results reported in publication PMC10223284, “Category-Based Toxicokinetic Evaluations of Data-Poor Per- and Polyfluoroalkyl Substances (PFAS) using Gas Chromatography Coupled with Mass Spectrometry” (Toxics, 2023).
Where “and” joins values, the source holds several entries; their conditions need not be identical. Identical values can stand only once. Like-named read-outs stand apart in the source and are kept apart here.

Columns and labels:
human plasma [1] = assay: Ultracentrifugation (UC) plasma protein binding assay, fraction unbound in plasma (fup); conditions: for fup: human plasma, 10 μM, 37 °C
[2] = tested on: pooled human cryopreserved primary hepatocyte suspensions; assay: Hepatic metabolic stability (hepatocyte clearance) assay, substrate depletion; assay type: in vitro ADME
Text: William’s Medium E (Gibco A1217601), dexamethasone, and cell maintenance cocktail B (Gibco CM4000) were obtained from Thermo Fisher Scientific (Waltham, MA, USA). Hepatosure OptiThaw media (P/N K8000; Lot No. 18–1–0322) was obtained from Sekisui Xenotech (Kansas City, KS, USA). Trypan blue solution (P/N 1450021) was obtained from Bio-Rad (Hercules, CA, USA). Pooled human cryopreserved primary hepatocyte suspensions were obtained from BioIVT (Westbury, NY, USA) and produced using nontransplantable tissue. The human 50-donor pool (mixed gender; Cat X0080005; Lot MYC), selected from BioIVT’s commercially available, prepooled lots, was selected following review of vendor-generated metabolic characterization information. Pooled, mixed-sex human plasma from de-identified donors was obtained from a commercial vendor that operates a U.S. Food and Drug Administration-licensed and inspected donor center (BioIVT bioivt.com (accessed 12 May 2023). Donors comprised five males and five females and ranged from 20 to 50 years of age. Plasma collected using anticoagulant K2EDTA was sterile-filtered ([…]) and stored at <−70 °C until use.
The hepatic metabolic stability assay measures the loss of a parent compound over time in a substrate-depletion approach. Briefly, hepatocyte suspensions, after a viability assessment, were diluted in complete William’s medium E (containing dexamethasone and cell maintenance cocktail B) prior to addition to 96-well polypropylene plates containing an equal volume of media spiked with the test compound (1 μM assay concentration; assay cell density = 50,000 cells/100 μL) and maintained at 37 °C with shaking. At each time point, relevant plates were crashed with an equal volume of ice-cold acetonitrile, centrifuged, and supernatant transferred to a new plate prior to storage at <−70 °C until quantitative analysis. Controls, run in parallel, included cell-free (i.e., media only) and metabolically inactivated hepatocytes to evaluate abiotic chemical stability in the aqueous media matrix with and without cellular protein. In preliminary runs, these controls were run at T0 and T240 only. If significant instability was noted, the hepatocyte clearance assay was rerun, including cell-free samples at each time point and metabolically inactivated hepatocytes at selected time points.
To process samples for quantitative analysis, samples were thawed and mixed. An aliquot of sample was removed and diluted in acetonitrile (1 part sample plus 9 parts acetonitrile) containing the relevant ISs selected for the PFAS being analyzed (See Table S2). The target at instrument concentration of each IS was 10 pg/μL.
The curves were generated using concentration/response ratios from the target analyte and IS, with either linear or quadratic regression models. The model and weighting, if necessary, were chosen to most accurately reflect the response of each compound and was evaluated by recalculating the individual calibration points using the curve. An acceptable model reflected an accuracy of ±30% of the theoretical value.
Hepatic metabolic clearance data were plotted in semi-log format (ln concentration vs. time) with three replicates at each time point, as previously described. […] The equations described below are used to calculate the chemical half-life (T½) and intrinsic in vitro clearance (Clin vitro) with units of μL/(min × million hepatocytes). In Equation (3), 2000 is a scalar used to adjust the assay cell number up to be consistent with units of 1 million cells in the Clint equation.
Negative controls, including media only and metabolically inactivated hepatocyte controls, were included to monitor abiotic loss (i.e., background clearance) during the assay. Where significant compound loss occurred using the analysis described above, background clearance rates were calculated and used to background-adjust hepatic metabolic clearance rates. […]

[3] = Abiotic loss in negative controls of the hepatocyte clearance assay (cell-free media, metabolically inactivated hepatocytes); assay type: in vitro ADME
Method in brief: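 Abiotic stability was checked with media-only and inactivated-hepatocyte controls, run at T0 and T240 or, on rerun, at more time points. Compound at 1 μM, 37 °C, acetonitrile quench. Loss rates served for background subtraction, and ≥50% loss by T120 meant exclusion.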

human primary cells = conditions: cited from earlier work
human plasma [4] = assay: Chemical stability in plasma over the UC assay time course (T5hr/T1hr)
Protocol: Three replicates were run per experiment, with 4NT included as a reference compound in each to evaluate assay performance. All PFAS and 4NT, prepared at a 3 mM working stock, were added to human plasma to achieve a final, thoroughly mixed assay concentration of 10 μM, incubated at 37 °C for 1 h with shaking. […] After UC, the aqueous fraction (AF; i.e., supernatant devoid of plasma proteins/lipoproteins/fatty acids) was collected and transferred to a new tube. The second aliquot maintained at 37 °C was collected (T5hr). At the relevant time points, each volume of sample was combined with 3 volumes of vigorously mixed ice-cold acetonitrile with the labeled IS and stored for 10 min at −20 °C prior to centrifugation at 12,000× g for 10 min at 4 °C. The supernatant was collected and stored at <−70 °C until quantitative analysis. […] Furthermore, chemical stability in plasma over the assay time course was assessed using the T1hr and T5hr samples.
Percent chemical remaining at the end of the UC assay (T5hr/T1hr) was used to remove unstable chemicals from further evaluation.

[5] = In vitro-in vivo extrapolation (IVIVE) to Css and administered equivalent dose (AED); set-up: species or system human
Protocol: Using the experimentally generated PPB (fraction unbound in plasma, fup) and hepatic Clint data, IVIVE was performed as previously described to calculate human steady-state plasma concentrations (Css). Briefly, experimental measures of fup are adjusted using blood:plasma partitioning information to estimate the fraction unbound in blood (fub). Experimental hepatocyte Clint data are scaled up to represent whole-liver clearance (L/h). […] Once estimated, these Css values are considered in conjunction with published in vitro bioactivity concentrations (i.e., lowest-observed effective concentrations, or LOECs) to calculate AEDs (Table 2). See Table S10 for all relevant IVIVE inputs, scalars, calculations, and outputs.

[6] = hepatocyte incubation, Rep 1-3, start conc 1000 nM
[7] = hepatocyte time course, NS = slope not significant
[8] = heat treated hepatocytes control, 0 vs 240 min
[9] = heat treated hepatocytes, Rep 1-3

OCC(F)(F)C(F)(F)C(F)(F)CO [Hexafluoroamylene glycol]
Fraction Unbound (fu), Run-specific Avg (human plasma [1]; average of one UC run (run date in line above)): 0.68 | Mean fu (human plasma [1]; fraction unbound in human plasma, ultracentrifugation, some values based on eLOQ): 0.6770 | fup (human plasma [1]; ultracentrifugation): 0.6770 | fup (human plasma [1]; ultracentrifugation, listed as hexafluoroamylene glycol): 0.68 | Fraction Unbound (fu), replicates A, B, C (human plasma [1]; single replicate of one UC run (aqueous fraction / Time 5 hr)): 0.6223 and 0.7422 and 0.6663 | Bkgd-Sub Clearance (µL/min/106 hepatocytes) ([2]; background-subtracted): 0.00 µL/min/106 hepatocytes | Concentration (nM), Time 0 min [2, 6]: 904.289 nM and 891.557 nM and 657.581 nM | Concentration (nM), Time 15 min [2, 6]: 889.716 nM and 801.576 nM and 938.868 nM | Concentration (nM), Time 30 min [2, 6]: 774.463 nM and 733.048 nM and 756.418 nM | Concentration (nM), Time 60 min [2, 6]: 901.107 nM and 929.789 nM and 820.604 nM | Concentration (nM), Time 120 min [2, 6]: 865.693 nM and 807.871 nM and 671.853 nM | Concentration (nM), Time 240 min [2, 6]: 674.351 nM and 611.715 nM and 490.915 nM | Linear Regression Results, Best-Fit Values, Slope ([2]; hepatocyte time course): -0.001398 | Linear Regression Results, Best-Fit Values, Clearance [2, 7]: 2.796 | Linear Regression Results, Best-Fit Values, Half Life [2, 7]: 495.708 | clearance rate in hepatocytes ([2]; human hepatocyte suspensions, values as rounded or worded in text): no clearance | Hep_Stab_Fail ([3]; flag for stability failure in hepatocyte clearance assay controls (1 or Fst = fail, 0 = pass)): 0 | HT BkgdCl, Half Life [3, 8]: 329.06 | HT BkgdCl, Slope [3, 8]: -0.002106 | Negative Controls, Heat Treated (HT), concentration at 0 min [3, 9]: 941.377 nM and 735.79 nM and 794.754 nM | Negative Controls, Heat Treated (HT), concentration at 240 min [3, 9]: 487.17 nM and 595.696 nM and 416.449 nM | No Cells BkgdCl, Half Life ([3]; no cells control, 0 vs 240 min): 490.099 | No Cells BkgdCl, Slope ([3]; no cells control, 0 vs 240 min): -0.001414 | Negative Controls, No cells (NC), concentration at 0 min ([3]; no cells, Rep 1-3): 830.122 nM and 683.027 nM and 707.501 nM | Negative Controls, No cells (NC), concentration at 240 min ([3]; no cells, Rep 1-3): 479.464 nM and 568.092 nM and 532.117 nM | LOEC (human primary cells; BioSeek lowest-observed effect concentration used for AED): 2.00 µM | LOEC (human primary cells; minimum lowest-observed effect concentration, BioSeek platform): 2 µM | PPB_Stab_Fail (human plasma [4]; flag for stability failure in the plasma protein binding assay (1 = fail, 0 = pass)): 0 | Mean Stability (human plasma [4]; mean T5hr/T1hr ratio over all replicates and runs, plasma): 0.996 | Stability (T5hr/ T1hr), replicates A, B, C (human plasma [4]; single replicate of one UC run): 1.079 and 0.9916 and 0.917 | Css ([5]; Assuming 1 mg/kg/day dose rate, BW 70 kg): 0.44 mg/L and 2.07 uM | Clhep ([5]; IVIVE, hepatocyte Clint scaled to whole-liver clearance): 0.000 L/h | AED ([5]; administered equivalent dose from LOEC and Css): 0.9667 mg/kg/day | Fub ([5]; fub=fup/(B:P), Fub set to 1 if needed): 1 | Css ([5]; human steady-state plasma concentration, assuming 1 mg/kg/day dosage): 2.07 µM | Css ([5]; human steady-state plasma concentration, assuming 1 mg/kg/day dosage, listed as hexafluoroamylene glycol): 2.1 to 2.7 µM | CLint ([5]; scaled with HPGL 110 mill cells/g, Vl 1596 g): 0 µL/min
